Assay results: patent publication US20250270445A1, “COMPOUNDS AND USES THEREOF IN FIELD OF OPTOELECTRONICS” (Zhejiang Brilliant Optoelectronic Technology Co.,Ltd., priority 2022, published 2025)

Key:
Assay type in all cases: physicochemical
[1] = Solubility of compounds in toluene
Method: The solubility of the compounds in the toluene were determined as follows: • 1. 1000 mg of toluene solution was placed in the transparent glass sample bottle. • 2. A certain mass of the compound was added into the toluene, and oscillated until completely dissolved. • 3. After the compound was completely dissolved, a certain mass of the compound was further added into the toluene, and oscillated. • 4. The above steps were repeated until the compound wasn't dissolved any more. • 5. The total mass of the compound added was recorded and the solubility was obtained by calculation.

[2] = Absorption spectrum, emission spectrum and extinction coefficient in toluene solution; settings: for Molar extinction coefficient of the toluene solution: maximum absorption peak
Method: The extinction coefficients of the compounds and their absorption and emission spectrums in the solution were determined as follows: • 1. The compound with a certain amount of substance concentration in the toluene was prepared in a volumetric flask. • 2. The absorption spectrum of the solution was measured by using an ultraviolet-visible spectrophotometer (Puxi T9s) to obtain the absorption peak wavelength. • 3. The absorbance of the maximum absorption peak divided by the amount of substance concentration is the molar extinction coefficient of the compound. • 4. The emission spectrum of the solution was measured by using a fluorescent spectroscope (Hitachi, F-4700 FL Spectrophotometer) to obtain the emission peak wavelength.

[3] = Absorption and emission spectrum in spin-coated film; settings: spin-coated film
Method: The absorption and emission spectrums of the compounds in the film were determined as follows: • 1. The compound with a certain concentration in the toluene was prepared. • 2. The prepared toluene solution was dropped onto a clean glass substrate. • 3. Spin-coating, and then heating at the 80° C. for 1 min. • 4. The absorption spectrum of the film was measured by using an ultraviolet-visible spectrophotometer (Puxi T9s) to obtain the absorption peak wavelength. • 5. The emission spectrum of the film was measured by using a fluorescent spectroscope (Hitachi, F-4700 FL Spectrophotometer) to obtain the emission peak wavelength.

[4] = UV stability of compounds in toluene (absorbance decay to 80%); settings: 1×10^−5 mol/L in toluene, UV LEDs 365 nm & 255 nm, time to 80% absorbance, normalized to comparative compound 2 as 100%
Method: The compound was dissolved in the toluene with a concentration of 1×10^−5 mol/L. 3 mL solution was added to the cuvette with a lid and the lid was screwed on tightly, then the cuvette was placed in the ultraviolet-visible spectrophotometer to test the absorption spectrum, the absorbance of the maximum absorption peak was recorded as the initial value. The cuvette was placed at a distance of 12 cm from the UV LEDs (365 nm & 255 nm), irradiated for a period and tested its absorption spectrum, then continued to be irradiated after the test, and repeated until the absorbance decayed to 80% of its initial value, the time was recorded as t80.

[5] = Blue light stability of the film (luminance decay); settings: about 800 nm evaporated film, blue LED 460 nm, 3000 cd/m^2, versus comparative compound 1
Method: A film about 800 nm was evaporated, encapsulated with a glass cover plate, then placed at 2.5 cm above the blue LED (460 nm, 3000 cd/m^2) to test the luminance value with a luminance meter (Fstar, CS-2000A). The luminance value of the first test was recorded as the initial value, and the luminance was tested by irradiating for a period of time to obtain the luminance decay curve, see FIG. 34.

Row | SMILES | Solubilities(/100 g, toluene) [1] | Absorption peak of the toluene solution [2] | Emission peak of the toluene solution [2] | Molar extinction coefficient of the toluene solution [2] | Absorption peak of the film [3] | Emission peak of the film [3] | Times t80 [4] | stability of the film under blue-light illumination (luminance decay) [5]
1 | CCc1cccc(CC)c1N(c1cc(C(C)(C)C)cc(C(C)(C)C)c1)c1cc(N(c2cc(C(C)(C)C)cc(C(C)(C)C)c2)c2c(CC)cccc2CC)c2ccc3c(N(c4cc(C(C)(C)C)cc(C(C)(C)C)c4)c4c(CC)cccc4CC)cc(N(c4cc(C(C)(C)C)cc(C(C)(C)C)c4)c4c(CC)cccc4CC)c4ccc1c2c43 [compound 8] | 30.1 g/100 g toluene | 484 nm | 501 nm | 5.3 × 10^4 L · mo 1^−1 | 482 nm | 499 nm | 261% | obviously improved UV stability
2 | Cc1cccc(C)c1N(c1cc(C(C)(C)C)cc(C(C)(C)C)c1)c1cc(N(c2cc(C(C)(C)C)cc(C(C)(C)C)c2)c2c(C)cccc2C)c2ccc3c(N(c4cc(C(C)(C)C)cc(C(C)(C)C)c4)c4c(C)cccc4C)cc(N(c4cc(C(C)(C)C)cc(C(C)(C)C)c4)c4c(C)cccc4C)c4ccc1c2c43 [compound 5] | 4.6 g/100 g toluene | 477 nm | 497 nm | 5.6 × 10^4 L · mo 1^−1 | 476 nm | 497 nm | 304% | –
3 | Cc1cccc(C)c1N(c1ccccc1)c1cc(N(c2ccccc2)c2c(C)cccc2C)c2ccc3c(N(c4ccccc4)c4c(C)cccc4C)cc(N(c4ccccc4)c4c(C)cccc4C)c4ccc1c2c43 [compound 1] | 1.5 g/100 g toluene | 475 nm | 490 nm | 6.0 × 10^4 L · mo 1^−1 | 477 nm | 497 nm | 190% | –
4 | CCCCCCCCc1ccc(-c2cc(OC)ccc2N(c2cc(F)c(F)c(F)c2)c2cc(N(c3cc(F)c(F)c(F)c3)c3ccc(OC)cc3-c3ccc(CCCCCCCC)cc3)c3ccc4c(N(c5cc(F)c(F)c(F)c5)c5ccc(OC)cc5-c5ccc(CCCCCCCC)cc5)cc(N(c5cc(F)c(F)c(F)c5)c5ccc(OC)cc5-c5ccc(CCCCCCCC)cc5)c5ccc2c3c54)cc1 [compound 16] | >10 g/100 g toluene | 475 nm | 496 nm | 7.0 × 10^4 L · mo 1^−1 | 476 nm | 496 nm | 383% | –
5 | Cc1cccc(C)c1N(c1ccc(C(C)(C)C)cc1)c1cc(N(c2ccc(C(C)(C)C)cc2)c2c(C)cccc2C)c2ccc3c(N(c4ccc(C(C)(C)C)cc4)c4c(C)cccc4C)cc(N(c4ccc(C(C)(C)C)cc4)c4c(C)cccc4C)c4ccc1c2c43 [compound 3] | 4.2 g/100 g toluene | 477 nm | 495 nm | 3.0 × 10^4 L · mo 1^−1 | 479 nm | 497 nm | 212% | –
6 | CCCCCCCCc1ccc(N(c2ccc(C(C)C)cc2-c2cc(F)c(F)c(F)c2)c2cc(N(c3ccc(CCCCCCCC)cc3)c3ccc(C(C)C)cc3-c3cc(F)c(F)c(F)c3)c3ccc4c(N(c5ccc(CCCCCCCC)cc5)c5ccc(C(C)C)cc5-c5cc(F)c(F)c(F)c5)cc(N(c5ccc(CCCCCCCC)cc5)c5ccc(C(C)C)cc5-c5cc(F)c(F)c(F)c5)c5ccc2c3c54)cc1 [compound 20] | >10 g/100 g toluene | 485 nm | 504 nm | 5.5 × 10^4 L · mo 1^−1 | 486 nm | 504 nm | 528% | –
